According to US6723732B1, “Percutaneously adminstrable preparations containing cerebral function activators” (Shionogi & Co., Ltd., priority 1998, dated 2004):
Read-outs that look alike come from different tables or passages of the source.

Legend:
[1] = system: skin; experiment: Macroscopic check of the applied skin and subcutaneous part after the experiment (irritation); assay type: in vivo, rat (Jcl SD strain)
Description: (IV) After the blood collection at 8 hrs, the residual drug in pharmaceutical preparations of the present invention in the cell was recovered by the addition of 50 mL of methanol. The percent of apparent absorption was calculated by the difference between the initial dose and the recovered amount at 8 hrs. AUC and MRT were calculated from plasma concentration profiles measured by HPLC. Furthermore, the skin to which the applied pharmaceutical preparations were applied and their subcutaneous part were removed and macroscopically checked after the experiments.

[2] = Percutaneous administration by strapping technique to conscious rats (rayon cloth on abdominal region), plasma concentration by HPLC; assay type: in vivo, rat (Jcl Wistar strain male); conditions: for BA: absolute bioavailability, AUC percutaneous divided by AUC intravenous; for Percent of apparent absorption: residual drug in rayon cloth recovered at 24 hr; for Cmax / Tmax / AUC(0-t): male, Jcl Wistar, rat, plasma, topical or ocular, conscious rats; for Cmax: aqueous base 3% 1-menthol/30% ethanol/67% pH 4 phosphate buffer, 5.6 mg/mL; for Tmax / AUC(0-t): aqueous base pH 4, 5.6 mg/mL; for AUC(0-t): read-out: AUC 0-360 min (converted)
Description: The experiment was performed by the strapping technique under the conscious condition. Non-fasting rats (Jcl Wistar strain male rat 9-11 W) were cannulated in the jugular vein two days before the percutaneous administration experiment. On the day of experiment, abdominal region hair of rats were removed using a hair clipper and shaver under ether anesthesia. Three different volumes (0.125, 0.25, and 0.5 mL) of the aqueous basic formulation (3% 1-menthol/30% ethanol/67% pH 4 phosphate buffer) containing 5.6 mg/mL of Compound (I-1) were administered (2, 4, and 8 mg/kg) on the rayon cloths, which area were 2.5, 5, and 10 cm^2, respectively, supported by tape on the abdominal region then covered with gum tape. Blood samples were collected from the jugular vein of the rats in a cage, at the time of 0, 0.5, 1, 2, 3, 4, 6, 8, and 10 hr. Plasma concentrations were measured by HPLC. The rayon cloths were recovered at 24 hr after the administration and the residual drug was extracted by 30 mL of methanol in a 50 mL centrifuge tube and measured its concentration by HPLC. The percent of apparent absorption was calculated and the absolute bioavailability was calculated from the AUC of percutaneous administration divided by the AUC of intravenous administration.

[3] = Percutaneous administration to anesthetized rats (glass cell on abdominal skin), plasma concentration by HPLC and residual drug recovery; assay type: in vivo, rat (Jcl SD strain); conditions: for MRT / AUC / Cmax / Tmax: Jcl SD, rat, plasma, topical or ocular, N=3
Description: (I) A base was composed of 2.5% 1-menthol/20% ethanol/77.5% distilled water. The phosphate salt of Compound (I-1) as an active ingredient was dissolved or dispersed in it at concentrations of 1.4, 5.6, and 11.2 mg/mL. (II) To Non-fasting rats (Jcl SD strain rat, 9-10 weeks old) was injected 20% urethane solution subcutaneously (0.65 mL/100 g BW). After the anesthetic condition of the rat became stable, abdominal hair was removed using a hair clipper and shaver, then the rats were kept on a hotplate at 36° C. A glass cell (35 mm I.D. with a ground stopper) was attached using Aron alpha (trademark) in an abdominal region of the rat and absorbent gauze (about two sheets) was placed in the cell, then 0.5 mL of the above obtained pharmaceutical preparations of the invention was administrated to the cell (2, 8 or 16 mg/kg, N=3). (III) The time of blood collection: 0, 1, 2, 3, 4, 6, and 8 hr after the administration (IV) After the blood collection at 8 hrs, the residual drug in pharmaceutical preparations of the present invention in the cell was recovered by the addition of 50 mL of methanol. The percent of apparent absorption was calculated by the difference between the initial dose and the recovered amount at 8 hrs. AUC and MRT were calculated from plasma concentration profiles measured by HPLC. Furthermore, the skin to which the applied pharmaceutical preparations were applied and their subcutaneous part were removed and macroscopically checked after the experiments. A phosphate buffer of pH 9 was prepared from 1/15 mole of dibasic sodium phosphate dissolved in […] of distilled water. The phosphate buffers of pH 4 and pH 7 were prepared by the addition of phosphoric acid to the pH 9 buffer. A bBase was composed of 3% 1-menthol/30% ethanol/67% phosphate buffer. The phosphate salt of Compound (I-1) as an active ingredient was dissolved or dispersed in the base at a concentration of 5.6 mg/mL. Other conditions were the same as that of Experiment 1 (N=3). Results are represented in Table 2 and FIG. 2. The phosphate salt of Compound (I-1) as an active ingredient was dissolved or dispersed in bases in Table 3 at a concentration of 5.6 mg/mL. Other condition were the same as that of the Experiment 1. The 3% 1-menthol/30% ethanol/67% pH 4 phosphate buffer was selected as an aqueous base. The 2.5% 1-menthol/20% ethanol/77.5% isopropyl myristate was selected as an oily base. The phosphate salt of Compound (I-1) as an active ingredient was dissolved or dispersed in the aqueous or oily formulation at a concentration of 5.6 mg/mL. Other conditions were the same as that of Experiment 1 (N=3).

[4] = system: acetylcholine release; experiment: Acetylcholine release in frontal cortex dialysate (microdialysis) after percutaneous administration; assay type: in vivo, rat (Jcl Wistar strain male); conditions: 2, 4 and 8 mg/kg percutaneous, aqueous basic formulation 5.6 mg/mL; values only in FIG. 5 and 6
Description: The day before experiment, a dialysis probe of 2 mm membrane length was inserted into frontal cortex of non-fasting rats (Jcl Wistar strain male rat 9-11 W). On the day of experiment, abdominal region hair was removed using a hair clipper and shaver under 2% halothane anesthesia. The aqueous basic formulation containing 5.6 mg/mL of Compound (I-1) was administered at a volume of 0.125, 0.25 and 0.5 mL to the rayon cloths which area were 2.5, 5, and 10 cm^2, respectively (Dose: 2, 4 and 8 mg/kg). Then the rayon cloths were placed on the abdominal region by support tape and covered with gum tape. After the administration, acetylcholine concentration in dialysate was measured every 30 min. FIG. 5 indicates a time-course of acetylcholine release after the administration of Compound (I-1). The plot data express the percent of control and the control level was monitored before the administration of Compound (I-1) in the same rat. The AUC values were calculated for 4 hrs of acetylcholine release as the percent of control in FIG. 6.

[5] = 8 mg/kg, pH 4, aqueous base 3% 1-menthol/30% ethanol/67% pH 4 phosphate buffer, phosphate salt 5.6 mg/mL
[6] = 8 mg/kg, pH 4, base pH 4: 3% 1-menthol/30% ethanol/67% phosphate buffer, phosphate salt 5.6 mg/mL
[7] = 8 mg/kg, pH 7, base pH 7: 3% 1-menthol/30% ethanol/67% phosphate buffer, phosphate salt 5.6 mg/mL
[8] = 8 mg/kg, aqueous base 3% 1-menthol/30% ethanol/67% pH 4 phosphate buffer, phosphate salt 5.6 mg/mL
[9] = 8 mg/kg, oily base 2.5% 1-menthol/20% ethanol/77.5% isopropyl myristate, phosphate salt 5.6 mg/mL

Q: For `c1cc(-c2nc3c4c(ncc3[nH]2)CCOC4)no1` [Compound (I-1), 2-(3-isoxazolyl)-3,6,7,9-tetrahydroimidazo[4,5-d]pyrano[4,3-b]pyridine], which “skin irritation (macroscopic check)” value ([1]; Experiment 1: all doses (2, 8, 16 mg/kg), 2.5% 1-menthol/20% ethanol/77.5% distilled water base) is on record?
A: The value was “No irritations”.

Q: What about the “skin irritation (macroscopic check)” value ([1]; Experiment 2: all formulations (pH 4 and pH 7 phosphate buffer bases), 5.6 mg/mL) of the same compound?
A: The value was “No irritations”.

Q: And the BA ([2]; 2 mg/kg percutaneous)?
A: Its BA is 30.92 ± 2.59%.

Q: And the “Percent of apparent absorption” value ([2]; 2 mg/kg percutaneous)?
A: Its value is 63.9%.

Q: And the BA ([2]; 4 mg/kg percutaneous)?
A: Its BA is 17.86 ± 6.40%.

Q: What about the “Percent of apparent absorption” value ([2]; 4 mg/kg percutaneous) of the same compound?
A: Its value is 52.8%.

Q: And the BA ([2]; 8 mg/kg percutaneous)?
A: Its BA is 22.68 ± 9.47%.

Q: And the “Percent of apparent absorption” value ([2]; 8 mg/kg percutaneous)?
A: The value was 60.0%.

Q: What about the Cmax ([2]; 2 mg/kg percutaneous (0.125 mL, 2.5 cm^2)) of the same compound?
A: The Cmax was 140 ± 30 ng/mL.

Q: And the Tmax ([2]; 2 mg/kg percutaneous)?
A: Its Tmax is 1.25 h.

Q: What about the AUC(0-t) ([2]; 2 mg/kg percutaneous) of the same compound?
A: The AUC(0-t) was 375 ng·h/mL.

Q: And the Cmax ([2]; 4 mg/kg percutaneous (0.25 mL, 5 cm^2))?
A: The Cmax was 170 ± 60 ng/mL.

Q: What about the Tmax ([2]; 4 mg/kg percutaneous) of the same compound?
A: The Tmax was 1.55 h.

Q: What about the AUC(0-t) ([2]; 4 mg/kg percutaneous) of the same compound?
A: Its AUC(0-t) is 408 ng·h/mL.

Q: And the Cmax ([2]; 8 mg/kg percutaneous (0.5 mL, 10 cm^2))?
A: The Cmax was 450 ± 150 ng/mL.

Q: What about the Tmax ([2]; 8 mg/kg percutaneous) of the same compound?
A: The Tmax was 0.85 h.

Q: And the AUC(0-t) ([2]; 8 mg/kg percutaneous)?
A: The AUC(0-t) was 1000 ng·h/mL.

Q: And the “Percent of apparent absorption” value ([3]; 2 mg/kg percutaneous, phosphate salt in 2.5% 1-menthol/20% ethanol/77.5% distilled water, initial dose minus recovered amount at 8 hrs)?
A: The value was 71.3%.

Q: And the “Percent of apparent absorption” value ([3]; 8 mg/kg percutaneous, phosphate salt in 2.5% 1-menthol/20% ethanol/77.5% distilled water, initial dose minus recovered amount at 8 hrs)?
A: Its value is 81.0%.

Q: And the “Percent of apparent absorption” value ([3]; 16 mg/kg percutaneous, phosphate salt in 2.5% 1-menthol/20% ethanol/77.5% distilled water, initial dose minus recovered amount at 8 hrs)?
A: Its value is 35.8%.

Q: What about the MRT ([3]; 2 mg/kg, 2 mg/kg percutaneous, phosphate salt 1.4 mg/mL in 2.5% 1-menthol/20% ethanol/77.5% distilled water) of the same compound?
A: Its MRT is 3.4 ± 0.6 h.

Q: And the AUC ([3]; 2 mg/kg, 2 mg/kg percutaneous, phosphate salt 1.4 mg/mL in 2.5% 1-menthol/20% ethanol/77.5% distilled water, blood to 8 hr)?
A: Its AUC is 490 ± 500 ng·h/mL.

Q: And the MRT ([3]; 8 mg/kg, 8 mg/kg percutaneous, phosphate salt 5.6 mg/mL in 2.5% 1-menthol/20% ethanol/77.5% distilled water)?
A: The MRT was 3.6 ± 0.2 h.

Q: What about the AUC ([3]; 8 mg/kg, 8 mg/kg percutaneous, phosphate salt 5.6 mg/mL in 2.5% 1-menthol/20% ethanol/77.5% distilled water, blood to 8 hr) of the same compound?
A: Its AUC is 720 ± 50 ng·h/mL.

Q: What about the AUC [3, 5] of the same compound?
A: Its AUC is 1610 ± 300 ng·h/mL.

Q: What about the MRT [3, 5] of the same compound?
A: The MRT was 2.2 ± 0.5 h.

Q: What about the AUC [3, 6] of the same compound?
A: The AUC was 1810 ± 300 ng·h/mL.

Q: And the MRT [3, 6]?
A: The MRT was 3 ± 0.2 h.

Q: And the AUC [3, 7]?
A: The AUC was 380 ± 180 ng·h/mL.

Q: And the MRT [3, 7]?
A: Its MRT is 3.4 ± 0.3 h.

Q: What about the Cmax [3, 8] of the same compound?
A: Its Cmax is 690 ± 130 ng/mL.

Q: What about the Tmax [3, 8] of the same compound?
A: The Tmax was 1.3 ± 0.6 h.

Q: And the AUC [3, 9]?
A: The AUC was 470 ± 100 ng·h/mL.

Q: And the Cmax [3, 9]?
A: The Cmax was 160 ± 10 ng/mL.

Q: And the MRT [3, 9]?
A: The MRT was 2.6 ± 0.6 h.

Q: What about the Tmax [3, 9] of the same compound?
A: Its Tmax is 1 h.

Q: What about the MRT ([3]; 16 mg/kg, 16 mg/kg percutaneous, phosphate salt 11.2 mg/mL in 2.5% 1-menthol/20% ethanol/77.5% distilled water) of the same compound?
A: The MRT was 4 ± 0.7 h.

Q: And the AUC ([3]; 16 mg/kg, 16 mg/kg percutaneous, phosphate salt 11.2 mg/mL in 2.5% 1-menthol/20% ethanol/77.5% distilled water, blood to 8 hr)?
A: Its AUC is 460 ± 180 ng·h/mL.

Q: What about the “Percent of apparent absorption” value ([3]; base 2.5% I-menthol, 20% ethanol, 77.5% isopropyl myristate, phosphate salt 5.6 mg/mL) of the same compound?
A: The value was 28.1%.

Q: What about the “Percent of apparent absorption” value ([3]; base pH 4: 3% 1-menthol/30% ethanol/67% phosphate buffer, phosphate salt 5.6 mg/mL) of the same compound?
A: The value was 66.8%.

Q: And the “Percent of apparent absorption” value ([3]; base pH 7: 3% 1-menthol/30% ethanol/67% phosphate buffer, phosphate salt 5.6 mg/mL)?
A: Its value is 22.6%.

Q: And the “Percent of apparent absorption” value ([3]; reference example base 5% N-methyl pyrrolidone, 5% ethanol, 90% isopropyl myristate, phosphate salt 5.6 mg/mL)?
A: The value was 17.4%.

Q: What about the “Percent of apparent absorption” value ([3]; reference example base 5% ethanol, 95% isopropyl myristate, phosphate salt 5.6 mg/mL) of the same compound?
A: The value was 13.0%.

Q: What about the “Percent of apparent absorption” value ([3]; reference example base 5% lactic acid, 5% ethanol, 90% isopropyl myristate, phosphate salt 5.6 mg/mL) of the same compound?
A: Its value is 11.9%.

Q: And the “concentrations of Compound (I-1) in all plasma samples” value ([3]; reference example bases of Table 3, under the limit of detection)?
A: The value was < 50 ng/mL.

Q: And the “acetylcholine release in frontal cortex dialysate (percent of control, time-course and AUC for 4 hrs)” value [4]?
A: Its value is “prolonged pharmacological effect”.
